Earlier results in patent US20110223258A1 (priority 2008, published 2011).

Conditions: aqueous solution

O=P([O-])(O)O.O=P([O-])(O)O.O=P([O-])(O)O.[Fe+3] [Fe(H2PO4)3, iron(III) dihydrogen phosphate]
Stability in solution: decomposes in the solution as a result of hydrolysis
